Reference: patent US20120015907A1, “Furopyridine compounds and uses thereof” (NOVARTIS AG, priority 2010, published 2012)

Experiments:
HCV polymerase = target: T1, HCV polymerase (Hepatitis C virus genotype 1b, UniProt Q9WMX2); test: biochemical; conditions: polymerase assay of Biological Example 1; read-out: NS5B polymerase IC50
T1 construct: (His)6 (C)

[1] = test system: HCV replicon I389luc-ubi-neo/NS3-3'/ET in ET (Huh-lucubineo-ET) cells; test: Replicon assay (Biological Example 2), luciferase read-out; type: cell-based; conditions: Hepatitis C virus, luciferase activity 48 hours after compound addition
Procedure: A cell line, ET (Huh-lucubineo-ET) is used for screening of compounds for inhibiting HCV RNA dependent RNA polymerase. The ET cell line is stably transfected with RNA transcripts harboring a I389luc-ubi-neo/NS3-3′/ET; replicon with firefly luciferase-ubiquitin-neomycin phosphotransferase fusion protein and EMCV-IRES driven NS3-5B polyprotein containing the cell culture adaptive mutations (E1202G; […]; K1846T) (Krieger at al, 2001 and unpublished). The ET cells are grown in DMEM (Dulbeco's Modified Eagle's Medium), supplemented with 10% fetal calf serum, 2 mM Glutamine, Penicillin (100 IU/mL)/Streptomycin (100 μg/mL), 1× nonessential amino acids, and 250 μg/mL G418 (“Geneticin”). Reagents are all available through Life Technologies (Bethesda, Md.). The cells are plated at 0.5-1.0×10^4 cells/well in the 96 well plates and incubated for 24 hrs before adding test compound. The compounds are added to the cells to achieve a final concentration of 0.1 nM to 50 μM and a final DMSO (dimethylsulfoxide) concentration of 0.5%. Luciferase activity is measured 48 hours later by adding a lysis buffer and the substrate (Catalog number Glo-lysis buffer E2661 and Bright-Glo luciferase system E2620 Promega, Madison, Wis.). Cells should not be too confluent during the assay. Percent inhibition of replication data is plotted relative to no compound control. To determine the EC50 (effective concentration at which 50% of the maximum inhibition is observed), a 10 point, 3-fold serial dilution for each compound is used, which spans a concentration range of 1000 fold. EC50 values were calculated by fitting % inhibition at each concentration to the following equation:
% inhibition=100%/[(EC50/[I])^b+1]
where b is Hill's coefficient.

Row | Structure (SMILES) | IC50 (HCV polymerase) | IC50 [1]
1 | CNC(=O)c1c(-c2ccc(F)cc2)oc2nc(N(C)S(C)(=O)=O)c(CCCCC(=O)O)cc12 [Example 4, 5-(2-(4-fluorophenyl)-3-(methylcarbamoyl)-6-(N-methylmethylsulfonamido)furo[2,3-b]pyridin-5-yl)pentanoic acid] | 49 nM | ≥ 5000 nM
2 | CNC(=O)c1c(-c2ccc(F)cc2)oc2nc(N(C)S(C)(=O)=O)c(CCCC(=O)NS(C)(=O)=O)cc12 [Example 4.5, 2-(4-fluorophenyl)-N-methyl-6-(N-methylmethylsulfonamido)-5-(4-(methylsulfonamido)-4-oxobutyl)furo[2,3-b]pyridine-3-carboxamide] | 206 nM | ≥ 5000 nM
3 | CNC(=O)c1c(-c2ccc(F)cc2)oc2nc(N(C)S(C)(=O)=O)c(CCCCC(=O)N3CCC[C@H]3C(=O)O)cc12 [Example 4.7, (S)-1-(5-(2-(4-fluorophenyl)-3-(methylcarbamoyl)-6-(N-methylmethylsulfonamido)furo[2,3-b]pyridin-5-yl)pentanoyl)pyrrolidine-2-carboxylic acid] | 51 nM | ≥ 5000 nM
4 | CNC(=O)c1c(-c2ccc(F)cc2)oc2nc(N(C)S(C)(=O)=O)c(CCCCC(C)(O)C(C)(C)O)cc12 (centres unmarked) [Example 4.9, 5-(5,6-dihydroxy-5,6-dimethylheptyl)-2-(4-fluorophenyl)-N-methyl-6-(N-methylmethylsulfonamido)furo[2,3-b]pyridine-3-carboxamide] | 75 nM | ≤ 100 nM
5 | CNC(=O)c1c(-c2ccc(F)cc2)oc2nc(N(C)S(C)(=O)=O)c(CCCCS(=O)(=O)CCC(=O)O)cc12 [Example 4.91, 3-(4-(2-(4-fluorophenyl)-3-(methylcarbamoyl)-6-(N-methylmethylsulfonamido)furo[2,3-b]pyridin-5-yl)butylsulfonyl)propanoic acid] | 10 nM | ≥ 5000 nM
6 | CNC(=O)c1c(-c2ccc(F)cc2)oc2nc(N(C)S(C)(=O)=O)c(C#CCCC(=O)O)cc12 [Example 5, 5-(2-(4-fluorophenyl)-3-(methylcarbamoyl)-6-(N-methylmethylsulfonamido)furo[2,3-b]pyridin-5-yl)pent-4-ynoic acid] | 256 nM | ≥ 5000 nM
7 | CCc1cc2c(C(=O)NC)c(-c3ccc(F)cc3)oc2nc1N(C)S(C)(=O)=O [Example 6, 5-Ethyl-2-(4-fluoro-phenyl)-6-(methanesulfonyl-methyl-amino)-furo[2,3-b]pyridine-3-carboxylic acid methylamide] | 20 nM | ≤ 100 nM
8 | CNC(=O)c1c(-c2ccc(F)cc2)oc2nc(N(C)S(C)(=O)=O)c(C(C)(O)CO)cc12 (centres unmarked) [Example 9, 5-(1,2-dihydroxypropan-2-yl)-2-(4-fluorophenyl)-N-methyl-6-(N-methylmethylsulfonamido)furo[2,3-b]pyridine-3-carboxamide] | 2320 nM | ≥ 5000 nM
9 | CNC(=O)c1c(-c2ccc(Oc3ccccc3)cc2)oc2nc(N(C)S(C)(=O)=O)c(C3CC3)cc12 [Example 16, 5-cyclopropyl-N-methyl-6-(N-methylmethylsulfonamido)-2-(4-phenoxyphenyl)furo[2,3-b]pyridine-3-carboxamide] | 3 nM | ≤ 100 nM
10 | CNC(=O)c1c(-c2ccc(F)cc2)oc2nc(N(CCCC(=O)O)S(C)(=O)=O)c(I)cc12 [Example 18.95, 4-(N-(2-(4-fluorophenyl)-5-iodo-3-(methylcarbamoyl)furo[2,3-b]pyridin-6-yl)methylsulfonamido)butanoic acid] | 112 nM | ≥ 5000 nM
11 | CNC(=O)c1c(-c2ccc(F)cc2)oc2nc(N(CCCC(=O)NS(C)(=O)=O)S(C)(=O)=O)c(I)cc12 [Example 18.96, 2-(4-fluorophenyl)-5-iodo-N-methyl-6-(N-(4-(methylsulfonamido)-4-oxobutyl)methylsulfonamido)furo[2,3-b]pyridine-3-carboxamide] | 34 nM | ≥ 5000 nM
12 | CNC(=O)c1c(-c2ccc(F)cc2)oc2nc(N(CCCC3CCCS3(=O)=O)S(C)(=O)=O)c(I)cc12 (centres unmarked) [Example 18.97, 6-{[3-(1,1-Dioxo-tetrahydrothiophen-2-yl)-propyl]-methanesulfonyl-amino}-2-(4-fluoro-phenyl)-5-iodo-furo[2,3-b]pyridine-3-carboxylic acid methylamide] | 32 nM | ≤ 100 nM
13 | CNC(=O)c1c(-c2ccc(Cl)cc2)oc2nc(N(CCCC3CCCS3(=O)=O)S(C)(=O)=O)c(I)cc12 (centres unmarked) [Example 18.98, 2-(4-Chloro-phenyl)-6-{[3-(1,1-dioxo-tetrahydrothiophen-2-yl)-propyl]-methanesulfonyl-amino}-5-iodo-furo[2,3-b]pyridine-3-carobxylic acid methylamide] | 4 nM | ≤ 100 nM
14 | CNC(=O)c1c(-c2ccc(C)cc2)oc2nc(N(CCCC3CCCS3(=O)=O)S(C)(=O)=O)c(I)cc12 (centres unmarked) [Example 18.99, 6-{[3-(1,1-Dioxo-tetrahydrophiophen-2-yl)-propyl]-methanesulfonyl-amino}-5-iodo-2-p-totyl-furo[2,3-b]pyridine-3-carboxylic acid methylamide] | 5 nM | ≤ 100 nM
15 | CNC(=O)c1c(-c2ccc(C)cc2)oc2nc(N(CCCS(C)(=O)=O)S(C)(=O)=O)c(I)cc12 [Example 18.994, 5-iodo-N-methyl-6-(N-(3-(methylsulfonyl)propyl)methylsulfonamido)-2-p-tolylfuro[2,3-b]pyridine-3-carboxamide] | 14 nM | ≤ 100 nM
16 | CNC(=O)c1c(-c2ccc(Cl)cc2)oc2nc(N(CCCCS(C)(=O)=O)S(C)(=O)=O)c(I)cc12 [Example 18.995, 2-(4-chlorophenyl)-5-iodo-N-methyl-6-(N-(4-(methylsulfonyl)butyl)methylsulfonamido)furo[2,3-b]pyridine-3-carboxamide] | 14 nM | ≤ 100 nM
17 | CNC(=O)c1c(-c2ccc(C)cc2)oc2nc(N(CCCCS(C)(=O)=O)S(C)(=O)=O)c(I)cc12 [Example 18.996, 5-iodo-N-methyl-6-(N-(4-(methylsulfonyl)butyl)methylsulfonamido)-2-p-tolylfuro[2,3-b]pyridine-3-carboxamide] | 4 nM | ≤ 100 nM
18 | CNC(=O)c1c(-c2ccc(F)cc2)oc2nc(N(CCCCS(C)(=O)=O)S(C)(=O)=O)c(I)cc12 [Example 18.997, 2-(4-fluorophenyl)-5-iodo-N-methyl-6-(N-(4-(methylsulfonyl)butyl)methylsulfonamido)furo[2,3-b]pyridine-3-carboxamide] | 22 nM | ≤ 100 nM
19 | CNC(=O)c1c(-c2ccc(F)cc2)oc2nc(N(CCCCC(=O)O)S(C)(=O)=O)c(I)cc12 [Example 19, 5-{[2-(4-Fluoro-phenyl)-5-iodo-3-methylcarbamoyl-furo[2,3-b]pyridin-6-yl]-methanesulfonyl-amino}-pentanoic acid] | 9 nM | ≥ 5000 nM
20 | CCc1cc2c(C(=O)NC)c(-c3ccc(F)cc3)oc2nc1N(CCCS(=O)(=O)c1ccccc1)S(C)(=O)=O [Example 21.97, 5-ethyl-2-(4-fluorophenyl)-N-methyl-6-(N-(3-(phenylsulfonyl)propyl)methylsulfonamido)furo[2,3-b]pyridine-3-carboxamide] | 3 nM | ≤ 100 nM
21 | CCc1cc2c(C(=O)NC)c(-c3ccc(F)cc3)oc2nc1N(Cc1cccc(C#N)c1)S(C)(=O)=O [Example 21.99, 6-(N-(3-cyanobenzyl)methylsulfonamido)-5-ethyl-2-(4-fluorophenyl)-N-methylfuro[2,3-b]pyridine-3-carboxamide] | 4540 nM | ≥ 5000 nM
22 | CCc1cc2c(C(=O)NC)c(-c3ccc(F)cc3)oc2nc1N(CCCS(C)(=O)=O)S(C)(=O)=O [Example 21.992, 5-ethyl-2-(4-fluorophenyl)-N-methyl-6-(N-(3-(methylsulfonyl)propyl)methylsulfonamido)furo[2,3-b]pyridine-3-carboxamide] | 65 nM | ≤ 100 nM
23 | CCc1cc2c(C(=O)NC)c(-c3ccc(F)cc3)oc2nc1N(CCCCC(C)=O)S(C)(=O)=O [Example 22.92, 5-ethyl-2-(4-fluorophenyl)-N-methyl-6-(N-(5-oxohexyl)methylsulfonamido)furo[2,3-b]pyridine-3-carboxamide] | 32 nM | ≤ 100 nM
24 | CCc1cc2c(C(=O)NC)c(-c3ccc(F)cc3)oc2nc1N(CCCC(C)=O)S(C)(=O)=O [Example 22.95, 5-ethyl-2-(4-fluorophenyl)-N-methyl-6-(N-(4-oxopentyl)methylsulfonamido)furo[2,3-b]pyridine-3-carboxamide] | 40 nM | ≤ 100 nM
25 | CCc1cc2c(C(=O)NC)c(-c3ccc(F)cc3)oc2nc1N(CCCCS(C)(=O)=O)S(C)(=O)=O [Example 23, 5-Ethyl-2-(4-fluoro-phenyl)-6-[methanesulfonyl-(4-methanesulfonyl-butyl)-amino]-furo[2,3-b]pyridine-3-carboxylic acid methylamide] | 22 nM | ≤ 100 nM
